Data on two compounds can be found in PMC12112332, “Characterization of Novel and Known Activators of Cannabinoid Receptor Subtype 2 Reveals Mixed Pharmacology That Differentiates Mycophenolate Mofetil and GW-842,166X from MDA7” (International Journal of Molecular Sciences, 2025).

The assay has as its target T1, rat CB2 (Rattus norvegicus, UniProt Q9QZN9).
T1 sequence (Q9QZN9 1-360): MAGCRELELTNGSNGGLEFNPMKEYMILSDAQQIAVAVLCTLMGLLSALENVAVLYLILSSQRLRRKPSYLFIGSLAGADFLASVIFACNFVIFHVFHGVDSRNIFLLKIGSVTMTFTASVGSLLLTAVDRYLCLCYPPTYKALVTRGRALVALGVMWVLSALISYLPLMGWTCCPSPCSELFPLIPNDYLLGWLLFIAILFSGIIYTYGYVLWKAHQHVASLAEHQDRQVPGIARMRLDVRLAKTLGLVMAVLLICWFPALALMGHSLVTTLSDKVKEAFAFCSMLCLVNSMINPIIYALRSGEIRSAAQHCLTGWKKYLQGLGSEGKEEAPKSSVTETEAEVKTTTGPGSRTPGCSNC
Nature of the assay: [3H]CP55,940 radioligand competition binding, membranes of HEK/GIRK cells expressing rat CB2. Further details: expressed in transfected cells; host or cells: HEK293 cells stably co-expressing GIRK1/2 channels. The text has this:
Agonists that bind to the receptor at the site occupied by the endogenous ligand (2-AG in this case) are considered orthosteric agonists. It is also possible for an agonist to bind and activate a receptor via a site other than the orthosteric site; these ligands are classified as allosteric agonists. To characterize the nature of the agonist activity of mycophenolate mofetil, we tested its ability to bind to the receptor in equilibrium binding assays using membranes harvested from cells expressing rCB2 using the radioligand [^3H]CP55,940 [40, 60]. CP55,940 has an affinity for both CB1 and CB2 receptors in the low nM range and is reported to bind to the site occupied by 2-AG [61].
Competition binding concentration–response curves were obtained in the presence of 0.5 nM [^3H]CP55,940 using membranes harvested from HEK/GIRK cells expressing rCB2. Data represent the mean ± SEM of three independent experiments run in triplicate. Data are plotted as a percentage of specific [^3H]CP55,940 binding. Non-specific binding was determined in the presence of 10 µM CP55,940.
Membranes were made from HEK/GIRK cells stably expressing rat CB2. Radioligand competition binding assays were performed as previously described, with minor modifications. In brief, compounds were serially diluted into assay buffer with 0.1% bovine serum albumin (BSA) and added to each well of a 96-well plate, along with 20 μg/well cell membrane and approximately 500 pM [^3H]-CP55,940 (specific activity = 104 Ci/mmol, PerkinElmer, Waltham, MA, USA). Following a 3-h incubation period on a shaker at room temperature, membrane-bound ligand was separated from free ligand by filtration through glass fiber 96-well filter plates (Unifilter-96, GF/B; PerkinElmer, Waltham, MA, USA). Forty microliters of scintillation fluid were added to each well, and membrane-bound radioactivity was determined by scintillation counting (Microbeta2; Revvity, Waltham, MA, USA). Nonspecific binding was determined using 10 μM of cold CP55,940.

Regarding `CCCCC/C=C\C/C=C\C/C=C\C/C=C\CCCC(=O)OC(CO)CO` [2-AG, 2-Arachidonoylglycerol], the Ki was 3.47 µM. With `COc1ccc(C(=O)c2c(C)n(CCN3CCOCC3)c3cc(I)ccc23)cc1` [AM630], the “rCB2 Binding Affinity pKi ± SEM” value (0.5 nM [3H]CP55,940, equilibrium) is on record as 7.61 ± 0.29.
